Reference: US20080227797A1, “Pyridopyrimidine Derivatives as Pde4 Inhibitors for the Treatment of Inflammatory and Immune Diseases” (ASTRAZENECA AB, priority 2005, published 2008)
pIC50: −log10 of the molar value.

Target: recombinant Human Phosphodiesterase B2 (PDE4B2) (Homo sapiens, UniProt Q07343)
Experiment: Human Phosphodiesterase B2 Alpha Screen Assay
Format: biochemical
Settings: cAMP substrate, Alpha Screen cAMP kit, 60 minutes at room temperature
Experimental: Human Phosphodiesterase B2 Alpha Screen Assay
The assay uses recombinant Human Phosphodiesterase B2 (PDE4B2) produced in house (PrAZL0133), stored at −20° C. The substrate uses cAMP, part of the Alpha Screen cAMP kit (Perkin Elmer, Cat# 6760625M), stored at 4° C. The Alpha Screen kit also includes biotinylated cAMP, acceptor and donor beads.
The assay additions were as follows: Test compounds and controls were added to white 384-well flat-bottom plates (Greiner, Cat# 781075), 0.2 μl in 100% DMSO, followed by 10 μl PDE4B2 in reaction buffer. The reaction buffer constitution was: 50 mM Tris (pH 7.5), 8.3 mM MgCl2, 1.7 mM EGTA and 0.01% (w/v) Brij®35. The enzyme and the compounds were incubated at room temperature for 15 minutes. Then 10 μl cAMP in reaction buffer was added. The assay was stopped after 60 minutes incubation at room temperature by adding 10 μl acceptor beads in detection buffer with 40 mM EDTA. The detection buffer constitution was: 5 mM Tris (pH 7.5), 0.1% (w/v) BSA and 0.1% (v/v) Tween 20. This addition followed by an addition of 10 μl donor beads in detection buffer, with biotinylated cAMP. The plates were then incubated, dark at room temperature, for 5 hours followed by measurement on a Fusion™-α analyser. IC50 values (presented in Table 1) were determined using Xlfit curve fitting using model 205.

Sequence of recombinant Human Phosphodiesterase B2 (PDE4B2) (Q07343 1-564 isoform Q07343-2): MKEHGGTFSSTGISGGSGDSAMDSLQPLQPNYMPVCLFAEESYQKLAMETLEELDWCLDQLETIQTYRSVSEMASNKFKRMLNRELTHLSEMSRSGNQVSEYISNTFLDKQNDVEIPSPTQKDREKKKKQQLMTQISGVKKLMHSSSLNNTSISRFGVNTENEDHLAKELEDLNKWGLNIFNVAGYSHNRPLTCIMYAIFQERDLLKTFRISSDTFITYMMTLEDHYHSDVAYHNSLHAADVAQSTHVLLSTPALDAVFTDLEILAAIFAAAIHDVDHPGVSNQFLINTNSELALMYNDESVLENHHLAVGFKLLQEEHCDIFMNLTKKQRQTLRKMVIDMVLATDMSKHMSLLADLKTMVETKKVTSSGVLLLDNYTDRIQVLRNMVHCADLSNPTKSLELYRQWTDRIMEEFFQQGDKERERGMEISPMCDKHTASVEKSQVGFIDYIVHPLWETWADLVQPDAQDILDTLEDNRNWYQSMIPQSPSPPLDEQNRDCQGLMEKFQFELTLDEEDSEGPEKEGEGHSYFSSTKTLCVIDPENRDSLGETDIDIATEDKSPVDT

Row | SMILES | pIC50
1 | CS(=O)(=O)c1cccc(-n2c(=O)n([C@H]3CC[C@@H](NC(=O)[C@@H](O)c4ccccc4)CC3)c(=O)c3cc(F)cnc32)c1 [Example 43, (2S)-N-{cis-4-[6-fluoro-1-[3-(methylsulfonyl)phenyl]-2,4-dioxo-1,4-dihydropyrido[2,3-d]pyrimidin-3(2H)-yl]cyclohexyl}-2-hydroxy-2-phenylacetamide] | 7.44
2 | CS(=O)(=O)c1cccc(-n2c(=O)n([C@H]3CC[C@@H](NC(=O)CO)CC3)c(=O)c3cc(F)cnc32)c1 [Example 44, N-{cis-4-[6-fluoro-1-[3-(methylsulfonyl)phenyl]-2,4-dioxo-1,4-dihydropyrido[2,3-d]pyrimidin-3(2H)-yl]cyclohexyl}-2-hydroxyacetamide] | 6.36
3 | COC(=O)c1cccc(-n2c(=O)n([C@H]3CC[C@@H](NC(=O)c4cc(C)ccc4O)CC3)c(=O)c3cc(F)cnc32)c1 [Example 45, methyl 3-[6-fluoro-3-{cis-4-[(2-hydroxy-5-methylbenzoyl)amino]cyclohexyl}-2,4-dioxo-3,4-dihydropyrido[2,3-d]pyrimidin-1(2H)-yl]benzoate] | > 7.80
4 | CS(=O)(=O)N[C@H]1CC[C@@H](n2c(=O)c3cc(F)cnc3n(-c3ccc(F)c(F)c3)c2=O)CC1 [Example 47, N-{cis-4-[1-(3,4-Difluorophenyl)-6-fluoro-2,4-dioxo-1,4-dihydropyrido[2,3-d]pyrimidin-3(2H)-yl]cyclohexyl}methanesulfonamide] | 7.22
5 | O=C(N[C@H]1CC[C@@H](n2c(=O)c3cc(F)cnc3n(-c3ccc(F)c(F)c3)c2=O)CC1)C1CC1 [Example 48, N-{cis-4-[1-(3,4-Difluorophenyl)-6-fluoro-2,4-dioxo-1,4-dihydropyrido[2,3-d]pyrimidin-3(2H)-yl]cyclohexyl}cyclopropanecarboxamide] | 8.06
6 | COC(=O)c1cccc(-n2c(=O)n([C@H]3CC[C@@H](NC(=O)[C@@H]4CCCN4C)CC3)c(=O)c3cc(F)cnc32)c1 [Example 49, Methyl 3-[6-fluoro-3-{cis-4-[(1-methyl-L-prolyl)amino]cyclohexyl}-2,4-dioxo-3,4-dihydropyrido[2,3-d]pyrimidin-1(2H)-yl]benzoate] | 7.84
7 | COC(=O)c1ccc(C(=O)N[C@H]2CC[C@@H](n3c(=O)c4cc(F)cnc4n(-c4ccc(F)c(F)c4)c3=O)CC2)cn1 [Example 50, methyl 5-[({cis-4-[1-(3,4-difluorophenyl)-6-fluoro-2,4-dioxo-1,4-dihydropyrido[2,3-d]pyrimidin-3(2H)-yl]cyclohexyl}amino)carbonyl]pyridine-2-carboxylate] | 8.68
8 | O=C(N[C@H]1CC[C@@H](n2c(=O)c3cc(F)cnc3n(-c3ccc(F)c(F)c3)c2=O)CC1)c1ccc(F)cc1O [Example 51, N-{cis-4-[1-(3,4-difluorophenyl)-6-fluoro-2,4-dioxo-1,4-dihydropyrido[2,3-d]pyrimidin-3(2H)-yl]cyclohexyl}-4-fluoro-2-hydroxybenzamide] | 8.28
9 | O=C(N[C@H]1CC[C@@H](n2c(=O)c3cc(F)cnc3n(-c3ccc(F)c(F)c3)c2=O)CC1)C1(O)CC1 [Example 52, N-{cis-4-[1-(3,4-difluorophenyl)-6-fluoro-2,4-dioxo-1,4-dihydropyrido[2,3-d]pyrimidin-3(2H)-yl]cyclohexyl}-1-hydroxycyclopropanecarboxamide] | 7.73
10 | O=C(N[C@H]1CC[C@@H](n2c(=O)c3cc(F)cnc3n(-c3ccc(F)c(F)c3)c2=O)CC1)c1cccc2cccnc12 [Example 53, N-{cis-4-[1-(3,4-difluorophenyl)-6-fluoro-2,4-dioxo-1,4-dihydropyrido[2,3-d]pyrimidin-3(2H)-yl]cyclohexyl}quinoline-8-carboxamide] | 9.40
11 | CSc1cccc(-n2c(=O)n([C@H]3CC[C@@H](NC(=O)c4ccco4)CC3)c(=O)c3cc(F)cnc32)c1 [Example 54, N-{cis-4-[6-fluoro-1-[3-(methylthio)phenyl]-2,4-dioxo-1,4-dihydropyrido[2,3-d]pyrimidin-3(2H)-yl]cyclohexyl}-2-furamide] | 8.41
12 | CSc1cccc(-n2c(=O)n([C@H]3CC[C@@H](NC(=O)C4CC4)CC3)c(=O)c3cc(F)cnc32)c1 [Example 55, N-{cis-4-[6-fluoro-1-[3-(methylthio)phenyl]-2,4-dioxo-1,4-dihydropyrido[2,3-d]pyrimidin-3(2H)-yl]cyclohexyl}cyclopropanecarboxamide] | 8.59
13 | CCC(=O)N[C@H]1CC[C@@H](n2c(=O)c3cc(F)cnc3n(-c3cccc(SC)c3)c2=O)CC1 [Example 56, N-{cis-4-[6-fluoro-1-[3-(methylthio)phenyl]-2,4-dioxo-1,4-dihydropyrido[2,3-d]pyrimidin-3(2H)-yl]cyclohexyl}propanamide] | 8.14
14 | CSc1cccc(-n2c(=O)n([C@H]3CC[C@@H](NC(=O)c4ccccc4)CC3)c(=O)c3cc(F)cnc32)c1 [Example 57, N-{cis-4-[6-fluoro-1-[3-(methylthio)phenyl]-2,4-dioxo-1,4-dihydropyrido[2,3-d]pyrimidin-3(2H)-yl]cyclohexyl}benzamide] | 8.38
15 | CSc1cccc(-n2c(=O)n([C@H]3CC[C@@H](NC(=O)C4CCCC4)CC3)c(=O)c3cc(F)cnc32)c1 [Example 58, N-{cis-4-[6-fluoro-1-[3-(methylthio)phenyl]-2,4-dioxo-1,4-dihydropyrido[2,3-d]pyrimidin-3(2H)-yl]cyclohexyl}cyclopentanecarboxamide] | 8.41
16 | CSc1cccc(-n2c(=O)n([C@H]3CC[C@@H](NC(=O)C(C)(C)O)CC3)c(=O)c3cc(F)cnc32)c1 [Example 59, N-{cis-4-[6-fluoro-1-[3-(methylthio)phenyl]-2,4-dioxo-1,4-dihydropyrido[2,3-d]pyrimidin-3(2H)-yl]cyclohexyl}-2-hydroxy-2-methylpropanamide] | 7.83
17 | CSc1cccc(-n2c(=O)n([C@H]3CC[C@@H](NS(=O)(=O)c4ccccc4)CC3)c(=O)c3cc(F)cnc32)c1 [Example 60, N-{cis-4-[6-fluoro-1-[3-(methylthio)phenyl]-2,4-dioxo-1,4-dihydropyrido[2,3-d]pyrimidin-3(2H)-yl]cyclohexyl}benzenesulfonamide] | 7.49
18 | COC(=O)c1cccc(-n2c(=O)n([C@H]3CC[C@@H](NC(=O)C4CCC4)CC3)c(=O)c3cc(F)cnc32)c1 [Example 61, methyl 3-[3-{cis-4-[(cyclobutylcarbonyl)amino]cyclohexyl}-6-fluoro-2,4-dioxo-3,4-dihydropyrido[2,3-d]pyrimidin-1(2H)-yl]benzoate] | 8.28
19 | COC(=O)c1cccc(-n2c(=O)n([C@H]3CC[C@@H](NC(=O)C(C)C)CC3)c(=O)c3cc(F)cnc32)c1 [Example 62, methyl 3-[6-fluoro-3-[cis-4-(isobutyrylamino)cyclohexyl]-2,4-dioxo-3,4-dihydropyrido[2,3-d]pyrimidin-1(2H)-yl]benzoate] | 8.20
20 | COC(=O)c1cccc(-n2c(=O)n([C@H]3CC[C@@H](NC(=O)CC(C)C)CC3)c(=O)c3cc(F)cnc32)c1 [Example 63, methyl 3-[6-fluoro-3-{cis-4-[(3-methylbutanoyl)amino]cyclohexyl}-2,4-dioxo-3,4-dihydropyrido[2,3-d]pyrimidin-1(2H)-yl]benzoate] | 8.24
21 | COC(=O)c1cccc(-n2c(=O)n([C@H]3CC[C@@H](NC(=O)C(C)(C)C)CC3)c(=O)c3cc(F)cnc32)c1 [Example 64, methyl 3-[3-{cis-4-[(2,2-dimethylpropanoyl)amino]cyclohexyl}-6-fluoro-2,4-dioxo-3,4-dihydropyrido[2,3-d]pyrimidin-1(2H)-yl]benzoate] | 8.36
22 | COCC(=O)N[C@H]1CC[C@@H](n2c(=O)c3cc(F)cnc3n(-c3cccc(C(=O)OC)c3)c2=O)CC1 [Example 65, methyl 3-[6-fluoro-3-{cis-4-[(methoxyacetyl)amino]cyclohexyl}-2,4-dioxo-3,4-dihydropyrido[2,3-d]pyrimidin-1(2H)-yl]benzoate] | 7.95
23 | COC(=O)c1cccc(-n2c(=O)n([C@H]3CC[C@@H](NC(=O)c4cccs4)CC3)c(=O)c3cc(F)cnc32)c1 [Example 66, methyl 3-[6-fluoro-2,4-dioxo-3-{cis-4-[(2-thienylcarbonyl)amino]cyclohexyl}-3,4-dihydropyrido[2,3-d]pyrimidin-1(2H)-yl]benzoate] | 8.32
24 | COC(=O)c1cccc(-n2c(=O)n([C@H]3CC[C@@H](NC(C)=O)CC3)c(=O)c3cc(F)cnc32)c1 [Example 67, methyl 3-[3-[cis-4-(acetylamino)cyclohexyl]-6-fluoro-2,4-dioxo-3,4-dihydropyrido[2,3-d]pyrimidin-1(2H)-yl]benzoate] | 7.67
25 | COC(=O)c1cccc(-n2c(=O)n([C@H]3CC[C@@H](NC(=O)c4cc5ccccn5n4)CC3)c(=O)c3cc(F)cnc32)c1 [Example 68, methyl 3-[6-fluoro-2,4-dioxo-3-{cis-4-[(pyrazolo[1,5-a]pyridin-2-ylcarbonyl)amino]cyclohexyl}-3,4-dihydropyrido[2,3-d]pyrimidin-1(2H)-yl]benzoate] | 9.22
